According to patent US7109193B2, “Tricyclic diazepines tocolytic oxytocin receptor antagonists” (Wyeth, priority 2001, dated 2006):

Target: T1, human vasopressin V2 receptor subtype (Homo sapiens, UniProt P30518)
T1 construct: host or cells: CHO cells (pZeoSV vector)
Assay: Vasopressin binding in Chinese Hamster Ovary cell membranes expressing human vasopressin V2 subtype receptors
Conditions: 100 nM, CHO cell membranes, [3H]arginine vasopressin, values without parentheses
Summary of the method: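 Radioligand displacement on membranes from CHO cells stably expressing human V2 receptor, 25 to 50 μg protein/well, in 50 mM Tris-HCl pH 7.4 with MgCl2, BSA and protease inhibitors. [^3H]arginine vasopressin (8 nM working solution) incubated 60 min at room temperature; bound label measured by filtration and scintillation counting.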

T1 sequence (P30518 whole entry): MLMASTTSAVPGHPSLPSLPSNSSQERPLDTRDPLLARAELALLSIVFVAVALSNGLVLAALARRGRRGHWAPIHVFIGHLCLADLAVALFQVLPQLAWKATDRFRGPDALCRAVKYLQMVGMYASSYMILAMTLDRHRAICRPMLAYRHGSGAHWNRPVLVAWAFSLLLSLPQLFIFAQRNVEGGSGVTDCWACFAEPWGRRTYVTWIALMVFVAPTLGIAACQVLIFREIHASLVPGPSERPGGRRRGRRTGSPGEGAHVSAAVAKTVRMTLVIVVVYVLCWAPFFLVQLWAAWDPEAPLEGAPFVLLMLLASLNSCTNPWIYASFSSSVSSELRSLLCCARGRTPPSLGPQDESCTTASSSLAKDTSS

SMILES	inhibition at 0.1 µM [%]
COc1ccccc1-c1ccc(C(=O)N2Cc3ccc(C(=O)NCCC4CCCN4C)n3Cc3ccccc32)cc1C (stereo not shown) [Example 162, 10-[(2′-Methoxy-2-methyl[1,1′-biphenyl]-4-yl)carbonyl]-N-[2-(1-methyl-2-pyrrolidinyl)ethyl]-10,11-dihydro-5H-pyrrolo[2,1-c][1,4]benzodiazepine-3-carboxamide]	20
COc1cc(C(=O)N2Cc3ccc(C(=O)N(C)C4CCN(C)C4)n3Cc3ccccc32)ccc1-c1cccc2ccccc12 (stereo not shown) [Example 192, 10-[3-Methoxy-4-(1-naphthyl)benzoyl]-N-methyl-N-(1-methyl-3-pyrrolidinyl)-10,11-dihydro-5H-pyrrolo[2,1-c][1,4]benzodiazepine-3-carboxamide]	28
Cc1ccccc1-c1ccc(C(=O)N2Cc3ccc(C(=O)NCCC4CCCN4C)n3Cc3ccccc32)cc1C (stereo not shown) [Example 163, 10-[(2,2′-Dimethyl[1,1′-biphenyl]-4-yl)carbonyl]-N-[2-(1-methyl-2-pyrrolidinyl)ethyl]-10,11-dihydro-5H-pyrrolo[2,1-c][1,4]benzodiazepine-3-carboxamide]	13
COc1ccccc1-c1ccc(C(=O)N2Cc3ccc(C(=O)NCCC4CCCN4C)n3Cc3ccccc32)cc1 (stereo not shown) [Example 165, 10-[(2′-Methoxy[1,1′-biphenyl]-4-yl)carbonyl]-N-[2-(1-methyl-2-pyrrolidinyl)ethyl]-10,11-dihydro-5H-pyrrolo[2,1-c][1,4]benzodiazepine-3-carboxamide]	25
COc1cc(C(=O)N2Cc3ccc(C(=O)N(C)C4CCN(C)CC4)n3Cc3ccccc32)ccc1-c1cccc2ccccc12 [Example 182, 10-[3-Methoxy-4-(1-naphthyl)benzoyl]-N-methyl-N-(1-methyl-4-piperidinyl)-10,11-dihydro-5H-pyrrolo[2,1-c][1,4]benzodiazepine-3-carboxamide]	35
COc1cc(-c2ccccc2C)c(Cl)cc1C(=O)N1Cc2ccc(C(=O)NCCC3CCCN3C)n2Cc2ccccc21 (stereo not shown) [Example 168, 10-[(6-Chloro-3-methoxy-2′-methyl[1,1′-biphenyl]-4-yl)carbonyl]-N-[2-(1-methyl-2-pyrrolidinyl)ethyl]-10,11-dihydro-5H-pyrrolo[2,1-c][1,4]benzodiazepine-3-carboxamide]	10
COc1cccc(-c2ccc(C(=O)N3Cc4ccc(C(=O)N(C)C5CCN(C)C5)n4Cc4ccccc43)cc2C)c1 (stereo not shown) [Example 186, 10-[(3′-Methoxy-2-methyl[1,1′-biphenyl]-4-yl)carbonyl]-N-methyl-N-(1-methyl-3-pyrrolidinyl)-10,11-dihydro-5H-pyrrolo[2,1-c][1,4]benzodiazepine-3-carboxamide]	8
COc1cccc(-c2cc(OC)c(C(=O)N3Cc4ccc(C(=O)NCCN5CCCCC5)n4Cc4ccccc43)cc2Cl)c1 [Example 156, 10-[(6-Chloro-3,3′-dimethoxy[1,1′-biphenyl]-4-yl)carbonyl]-N-[2-(1-piperidinyl)ethyl]-10,11-dihydro-5H-pyrrolo[2,1-c][1,4]benzodiazepine-3-carboxamide]	12
COc1cc(C(=O)N2Cc3ccc(C(=O)NCCN4CCCCC4)n3Cc3ccccc32)ccc1-c1cccc2ccccc12 [Example 157, 10-[3-Methoxy-4-(1-naphthyl)benzoyl]-N-[2-(1-piperidinyl)ethyl]-10,11-dihydro-5H-pyrrolo[2,1-c][1,4]benzodiazepine-3-carboxamide]	23
Cc1ccccc1-c1ccc(C(=O)N2Cc3ccc(C(=O)NCCC4CCCN4C)n3Cc3ccccc32)cc1 (stereo not shown) [Example 166, 10-[(2′-Methyl[1,1′-biphenyl]-4-yl)carbonyl]-N-[2-(1-methyl-2-pyrrolidinyl)ethyl]-10,11-dihydro-5H-pyrrolo[2,1-c][1,4]benzodiazepine-3-carboxamide]	3
COc1ccccc1-c1ccc(C(=O)N2Cc3ccc(C(=O)O)n3Cc3ccccc32)cc1C [Example 9, 10-[(2′-Methoxy-2-methyl-[1,1′-biphenyl]-4-yl)carbonyl]-10,11-dihydro-5H-pyrrolo[2,1-c][1,4]benzodiazepine-3-carboxylic acid]	42
COc1ccccc1-c1ccc(C(=O)N2Cc3ccc(C(=O)NCCC4CCCN4C)n3Cc3ccccc32)cc1OC (stereo not shown) [Example 171, 10-[(2,2′-Dimethoxy[1,1′-biphenyl]-4-yl)carbonyl]-N-[2-(1-methyl-2-pyrrolidinyl)ethyl]-10,11-dihydro-5H-pyrrolo[2,1-c][1,4]benzodiazepine-3-carboxamide]	14
Cc1cc(C(=O)N2Cc3ccc(C(=O)NCCC4CCCN4C)n3Cc3ccccc32)ccc1-c1ccccc1C(F)(F)F (stereo not shown) [Example 174, N-[2-(1-Methyl-2-pyrrolidinyl)ethyl]-10-{[2-methyl-2′-(trifluoromethyl)[1,1′-biphenyl]-4-yl]carbonyl}-10,11-dihydro-5H-pyrrolo[2,1-c][1,4]benzodiazepine-3-carboxamide]	7
COc1cc(C(=O)N2Cc3ccc(C(=O)NCCC4CCCN4C)n3Cc3ccccc32)ccc1-c1cccc2ccccc12 (stereo not shown) [Example 170, 10-[3-Methoxy-4-(1-naphthyl)benzoyl]-N-[2-(1-methyl-2-pyrrolidinyl)ethyl]-10,11-dihydro-5H-pyrrolo[2,1-c][1,4]benzodiazepine-3-carboxamide]	27

Now from value to compound:

inhibition at 0.1 µM [%]	SMILES
12	COc1cccc(-c2ccc(C(=O)N3Cc4ccc(C(=O)N5CCN(CCN6CCOCC6)CC5)n4Cc4ccccc43)cc2C)c1 [Example 208, {10-[(3′-Methoxy-2-methyl[1,1′-biphenyl]-4-yl)carbonyl]-10,11-dihydro-5H-pyrrolo[2,1-c][1,4]benzodiazepin-3-yl}{4-[2-(4-morpholinyl)ethyl]-1-piperazinyl}methanone]
0	Cc1cc(C(=O)N2Cc3ccc(C(=O)N4CCN(CCN5CCOCC5)CC4)n3Cc3ccccc32)ccc1-c1ccccc1C(F)(F)F [Example 216, (10-{[2-Methyl-2′-(trifluoromethyl)[1,1′-biphenyl]-4-yl]carbonyl}-10,11-dihydro-5H -pyrrolo[2,1-c][1,4]benzodiazepin-3-yl){4-[2-(4-morpholinyl)ethyl]-1-piperazinyl}methanone]
0	Cc1cc(C(=O)N2Cc3ccc(C(=O)N(C)C4CCN(C)C4)n3Cc3ccccc32)ccc1-c1ccccc1C(F)(F)F (stereo not shown) [Example 194, N-Methyl-N-(1-methyl-3-pyrrolidinyl)-10-{[2-methyl-2′-(trifluoromethyl)[1,1′-biphenyl]-4-yl]carbonyl}-10,11-dihydro-5H-pyrrolo[2,1-c][1,4]benzodiazepine-3-carboxamide]
16	COc1cccc(-c2cc(OC)c(C(=O)N3Cc4ccc(C(=O)N5CCN(C(C)C)CC5)n4Cc4ccccc43)cc2Cl)c1 [Example 239, {10-[(6-Chloro-3,3′-dimethoxy[1,1′-biphenyl]-4-yl)carbonyl]-10,11-dihydro-5H-pyrrolo[2,1-c][1,4]benzodiazepin-3-yl}(4-isopropyl-1-piperazinyl)methanone]
17	COc1cccc(-c2ccc(C(=O)N3Cc4ccc(C(=O)N5CCN(C(C)C)CC5)n4Cc4ccccc43)cc2C)c1 [Example 235, (4-Isopropyl-1-piperazinyl){10-[(3′-methoxy-2-methyl[1,1′-biphenyl]-4-yl)carbonyl]-10,11-dihydro-5H-pyrrolo[2,1-c][1,4]benzodiazepin-3-yl}methanone]
4	COc1ccccc1-c1ccc(C(=O)N2Cc3ccc(C(=O)N4CCN(C(C)C)CC4)n3Cc3ccccc32)cc1C [Example 232, (4-Isopropyl-1-piperazinyl){10-[(2′-methoxy-2-methyl[1,1′-biphenyl]-4-yl)carbonyl]-10,11-dihydro-5H-pyrrolo[2,1-c][1,4]benzodiazepin-3-yl}methanone]
11	COc1ccccc1-c1ccc(C(=O)N2Cc3ccc(C(=O)N4CCN(CCN5CCOCC5)CC4)n3Cc3ccccc32)cc1OC [Example 214, {10-[(2,2′-Dimethoxy[1,1′-biphenyl]-4-yl)carbonyl]-10,11-dihydro-5H-pyrrolo[2,1-c][1,4]benzodiazepin-3-yl}{4-[2-(4-morpholinyl)ethyl]-1-piperazinyl}methanone]
18	CN(C)CCN1CCN(C(=O)c2ccc3n2Cc2ccccc2N(C(=O)c2ccc(-c4cccc5ccccc45)cc2Cl)C3)CC1 [Example 205, {10-[2-Chloro-4-(1-naphthyl)benzoyl]-10,11-dihydro-5H-pyrrolo[2,1-c][1,4]benzodiazepin-3-yl}{4-[2-(dimethylamino)ethyl]-1-piperazinyl}methanone]
-4	C=CCN1CCN(C(=O)c2ccc3n2Cc2ccccc2N(C(=O)c2ccc(-c4ccccc4C)c(OC)c2)C3)CC1 [Example 225, (4-Allyl-1-piperazinyl){10-[(2-methoxy-2′-methyl[1,1′-biphenyl]-4-yl)carbonyl]-10,11-dihydro-5H-pyrrolo[2,1-c][1,4]benzodiazepin-3-yl}methanone]
4	C=CCN1CCN(C(=O)c2ccc3n2Cc2ccccc2N(C(=O)c2ccc(-c4ccccc4C(F)(F)F)c(C)c2)C3)CC1 [Example 230, (4-Allyl-1-piperazinyl)(10-{[2-methyl-2′-(trifluoromethyl)[1,1′-biphenyl]-4-yl]carbonyl}-10,11-dihydro-5H-pyrrolo[2,1-c][1,4]benzodiazepin-3-yl)methanone]
28	COc1cc(C(=O)N2Cc3ccc(C(=O)N4CCN(CCN(C)C)CC4)n3Cc3ccccc32)ccc1-c1cccc2ccccc12 [Example 203, {4-[2-(Dimethylamino)ethyl]-1-piperazinyl}{10-[3-methoxy-4-(1-naphthyl)benzoyl]-10,11-dihydro-5H-pyrrolo[2,1-c][1,4]benzodiazepin-3-yl}methanone]
